Measured values as given in paper PMC11813896, “Bis(7)-harmine derivatives as potential multi-target anti-Alzheimer agents” (Frontiers in Chemistry, 2025).
Where two headings read alike, the source gives them in different places.

Legend:
[1] = system: Tau; parameters: method as in Boländer et al., 2012; settings: ref Boländer et al., 2012; read-out: IC50 for inhibiting tau protein phosphorylation (bis-(arylvinyl)pyrazines); cited from earlier work
[2] = system: Aβ; parameters: method as in Boländer et al., 2012; settings: ref Boländer et al., 2012; read-out: IC50 for inhibiting Aβ aggregation (bis-(arylvinyl)pyrazines); cited from earlier work
[3] = system: MAO-A; settings: 2023, cited from earlier work
[4] = system: MAO-B; parameters: method as in Du et al., 2023; Haider et al., 2018; settings: ref Du et al., 2023; Haider et al., 2018; read-out: MAO-B (compound 6 of Figure 1); cited from earlier work
[5] = target: T1, recombinant hMAO-B (Homo sapiens, UniProt P27338); assay: biochemical; settings: read-out: inhibition of hMAO-B in primary screening
T1 construct: purchased Sigma-Aldrich
T1 sequence (P27338 1-520): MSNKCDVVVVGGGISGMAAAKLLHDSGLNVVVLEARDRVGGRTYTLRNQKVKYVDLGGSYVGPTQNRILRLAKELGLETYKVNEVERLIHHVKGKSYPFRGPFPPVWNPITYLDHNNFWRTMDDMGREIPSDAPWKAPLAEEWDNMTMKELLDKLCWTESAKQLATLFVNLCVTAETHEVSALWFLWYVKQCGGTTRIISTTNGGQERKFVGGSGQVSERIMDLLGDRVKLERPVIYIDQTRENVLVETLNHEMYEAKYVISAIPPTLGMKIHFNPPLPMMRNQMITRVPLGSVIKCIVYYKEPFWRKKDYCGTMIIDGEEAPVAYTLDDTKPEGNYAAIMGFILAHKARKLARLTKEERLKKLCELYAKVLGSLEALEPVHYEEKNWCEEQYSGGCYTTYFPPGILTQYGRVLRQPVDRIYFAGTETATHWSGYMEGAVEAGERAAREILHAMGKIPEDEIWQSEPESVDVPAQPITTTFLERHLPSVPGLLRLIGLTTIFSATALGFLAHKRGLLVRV
Description: Briefly, the compounds under investigation and the reference inhibitor were preincubated with kynuramine at 37°C for 10 min in 96-well microplates. […] The enzymatic reactions were terminated by adding 400 μL of 2 N NaOH and 1,000 μL of water, followed by centrifugation at 16,000 g for 10 min. Subsequently, the concentrations of MAOs that produced 4-hydroxyquinoline were determined by measuring the fluorescence of the supernatant using a Varioskan Flash Multimode Reader ([…]) with excitation and emission wavelengths set at 310 nm and 400 nm, respectively. The IC50 values were calculated from dose-response curves and expressed as the mean ± standard deviation. These values were determined based on at least three independent experiments, each performed in triplicate.

[6] = target: hAChE (Homo sapiens, UniProt P22303); assay: biochemical; settings: read-out: inhibition of hAChE in primary screening
Sequence of hAChE (P22303 32-614): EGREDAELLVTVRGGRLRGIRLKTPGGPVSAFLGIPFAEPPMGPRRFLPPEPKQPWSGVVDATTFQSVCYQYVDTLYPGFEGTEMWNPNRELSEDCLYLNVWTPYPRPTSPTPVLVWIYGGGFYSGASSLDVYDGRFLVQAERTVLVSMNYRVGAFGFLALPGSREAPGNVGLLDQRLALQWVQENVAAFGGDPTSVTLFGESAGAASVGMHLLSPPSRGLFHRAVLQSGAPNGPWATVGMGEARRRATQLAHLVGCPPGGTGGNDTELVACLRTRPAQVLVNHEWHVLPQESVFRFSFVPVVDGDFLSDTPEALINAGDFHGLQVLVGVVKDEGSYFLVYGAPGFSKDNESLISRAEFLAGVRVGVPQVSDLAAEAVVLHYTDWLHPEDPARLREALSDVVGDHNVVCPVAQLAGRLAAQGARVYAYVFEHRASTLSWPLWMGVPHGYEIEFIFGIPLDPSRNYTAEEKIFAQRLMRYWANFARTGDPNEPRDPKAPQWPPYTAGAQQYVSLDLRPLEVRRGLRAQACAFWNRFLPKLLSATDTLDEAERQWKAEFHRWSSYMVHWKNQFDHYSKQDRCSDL
Description: 50 μL of hAChE (0.02 unit/mL) or hBChE (0.02 unit/mL) were incubated with 10 μL of the compound in 96-well plates at 37°C for 6 min. Subsequently, 30 μL of a substrate solution containing acetylthiocholine iodide (ATCI) or butyrylthiocholine iodide (BTCI) at a concentration of 0.01 M was added, and the mixture was further incubated at 37°C for an additional duration of 12 min.

[7] = system: BuChE; settings: read-out: BuChE (harmine, Figure 1); ref Beato et al., 2021; Li et al., 2023; cited from earlier work
[8] = system: GSK-3β; parameters: method as in Beato et al., 2021; Li et al., 2023; settings: read-out: GSK-3β (harmine, Figure 1); ref Beato et al., 2021; Li et al., 2023; cited from earlier work
[9] = system: AChE; settings: read-out: AChE (harmine, Figure 1); ref Beato et al., 2021; Li et al., 2023; cited from earlier work
[10] = target: hBuChE (Homo sapiens, UniProt P06276); assay: Ellman's assay, hBuChE inhibition; format: biochemical; settings: read-out: inhibition of hBuChE in primary screening
Sequence of hBuChE (P06276 29-602): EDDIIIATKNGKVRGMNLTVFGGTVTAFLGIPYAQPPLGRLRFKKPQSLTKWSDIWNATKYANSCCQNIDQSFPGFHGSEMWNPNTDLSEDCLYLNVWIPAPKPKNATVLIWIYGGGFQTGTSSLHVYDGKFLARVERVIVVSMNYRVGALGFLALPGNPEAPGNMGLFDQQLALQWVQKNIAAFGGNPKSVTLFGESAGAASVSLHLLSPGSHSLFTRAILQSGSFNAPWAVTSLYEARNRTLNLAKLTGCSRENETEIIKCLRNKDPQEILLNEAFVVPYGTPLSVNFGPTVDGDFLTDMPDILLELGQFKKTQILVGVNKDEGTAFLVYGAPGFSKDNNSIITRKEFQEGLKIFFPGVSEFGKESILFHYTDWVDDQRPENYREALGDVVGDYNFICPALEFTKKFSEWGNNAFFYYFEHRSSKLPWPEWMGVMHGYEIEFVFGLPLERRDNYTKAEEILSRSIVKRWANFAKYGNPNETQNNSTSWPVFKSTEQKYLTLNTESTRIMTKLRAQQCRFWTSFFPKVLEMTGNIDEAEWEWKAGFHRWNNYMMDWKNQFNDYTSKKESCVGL
Description: The Ellman’s assay was utilized to assess the inhibitory potential of novel bis(7)-harmine derivatives against hAChE and hBuChE. 50 μL of hAChE (0.02 unit/mL) or hBChE (0.02 unit/mL) were incubated with 10 μL of the compound in 96-well plates at 37°C for 6 min. Subsequently, 30 μL of a substrate solution containing acetylthiocholine iodide (ATCI) or butyrylthiocholine iodide (BTCI) at a concentration of 0.01 M was added, and the mixture was further incubated at 37°C for an additional duration of 12 min. Finally, the activity was measured by adding 150 μL of a solution containing 5,5′−dithiobis (2-nitrobenzoic acid) (DTNB) at a concentration of 0.01 M, followed by measuring absorbance at a wavelength of 415 nm using an Evolution 300 PC UV-Vis Spectrophotometer.

Compound: COc1ccc(/C=C/c2cnc(/C=C/c3ccc(OC)cc3)cn2)cc1 [Compound 3, Bis-(arylvinyl)-pyrazines]
- IC50 [1]: 13 nM
- IC50 [2]: 17 nM

Compound: Cc1nccc2c1[nH]c1cc(OCc3cn(Cc4ccccc4Cl)nn3)ccc12 [Compound 6]
- IC50 ([3]; ref Du et al., Haider et al., 2018, read-out: MAO-A (compound 6 of Figure 1)): 830 nM
- IC50 [4]: 260 nM

Compound: COc1ccc2c(c1)[nH]c1c(C)nccc12 [Harmine]
- IC50 ([3]; read-out: MAO-A (harmine, Figure 1), ref Beato et al., 2021, Li et al.): 380 nM
- inhibition at 1 µM [5]: 23.5%
- inhibition at 1 µM [6]: 30.9%
- IC50 [7]: 75100 nM
- IC50 [8]: 31300 nM
- IC50 [9]: 9050 nM
- inhibition at 1 µM [10]: 23.5%
